The values below come from patent publication US20240315993A1, “ANTIPARASITIC COMPOUNDS” (Intervet Inc., priority 2021, published 2024).

In series [1] the test system is Copepodids (juvenile sea lice stage of Lepeophtheirus salmonis). Kind of series: Juvenile sea lice contact assay. The conditions noted are these: Lepeophtheirus salmonis, read-out: Sea lice inhibition (% of dead+damaged copepodids). As to the method: Copepodids (juvenile sea lice stage of Lepeophtheirus salmonis) were exposed to seawater spiked with declining concentrations of a test compound (dissolved in a DMSO sea-water mixture). Sea lice inhibition (% of dead+damaged copepodids) was assessed after approximately 24 hours of continuous exposure. The vitality of used parasites was confirmed in a negative (solvent) control group.

Series [2] concerns juvenile soft ticks (Ornithodoros moubata). Kind of series: Guinea pig - efficacy against argaside tick. In kind it is in vivo. Put shortly:
(§1)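 Guinea pigs given 5 mg/kg test compound orally (gavage) or s.c. in 10% DMF/emulsifier plus 90% water for injection, with local co-infestations of Ornithodoros moubata juveniles and Cimex lectularius at several post-treatment times. Engorged parasites scored dead/damaged about 24 h after collection; % inhibition versus pretreatment baseline by modified Schneider-Orelli formula.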

Series [3] concerns bed bugs (Cimex lectularius). Kind of series: Guinea pig - efficacy against bed bug. In kind it is in vivo. Put shortly:
as §1

In series [4] the test system is Lepeophtheirus salmonis. Description: Salmon - in vivo efficacy against sea lice using gavage administration. The conditions noted are these: 5 mg/kg once by gavage, day -3 infestation, counted around day 28. On the procedure:
Salmon (Salmo solar) were treated once orally by gavage at a dose of 5 mg/kg bodyweight per fish (Day 0). As formulation DMSO 5%/fish oil 95% was used. Salmon of the negative control group received only the excipients of the formulation.
The fish were infested with Lepeophtheirus salmonis copepodids twice before treatment (i.e., around day −28 and day −3) and once after treatment (i.e., day 17).
Around day 28 (end of animal phase), fish were euthanized, and lice on each fish were classified ((pre-)adult or juvenile stage) and counted. […] Efficacy is expressed as a % reduction of sea lice in treated groups versus a control group, using the Abbott's formula.

In series [5] the test system is Lepeophtheirus salmonis. The description is as above. The note with it: po, 168 h, read-out: therapeutic efficacy against (pre-)adult sea lice (% reduction vs control), salmon, 5 mg/kg once by gavage, day -28 infestation, counted day 7.
The subject of series [6] is Mobile stages of sea lice (pre-adults, adults of Lepeophtheirus salmonis). Description: Adult sea lice contact assay. The note with it: read-out: EC50 (sea lice inhibition, dead+damaged). On the procedure: Mobile stages of sea lice (i.e., pre-adults, adults of Lepeophtheirus salmonis) were exposed to seawater spiked with declining concentrations of a test compound (dissolved in a PEG sea-water mixture). Sea lice inhibition (% of dead+damaged sea lice) was assessed after approximately 1 and 24 hours of continuous exposure in comparison to a negative (solvent) control group.

Series [7] has as its system Rhipicephalus appendiculatus. Kind of series: Cattle - efficacy against multi-host ticks (Rhipicephalus appendiculatus). The series is classed as in vivo. As to the method: (§2) Cattle were treated subcutaneously or topically (pour-on) at a dose of 5 mg/kg bodyweight of a test compound (Day 0). As subcutaneous formulation NMP 60%/PEG300 40% was used, and as pour-on formulation DMA 92%/DEET 8% was used. Cattle of the negative control group received only the formulation excipients of both formulations (SC, pour-on).
(§3) Cattle were locally infested with 30 to 40 unfed adult ticks each of Rhipicephalus appendiculatus and Dermacenter variabilis (for both species sex ratio 1:1), by placing the ticks in an ear sleeve (R. appendiculatus) or a stockinet patch attached to the body side (D. variabilis) once before treatment, and at different time points after treatment. Free (i.e., non-attached ticks) were removed from ear sleeves/stockinet patches two days after each infestation and were excluded from the efficacy calculation.
(§4) Compounds with efficacy ≥80 percent were found active.

The subject of series [8] is larvae of Rhipicephalus microplus isolates with known resistance profiles. Description: Tick larvae resistance assay (larval immersion test, LIT). As to the method:
A tick resistance assay (i.e., larval immersion test, LIT) was carried out using larvae of several Rhipicephalus microplus isolates with known resistance profiles (i.e.: fully susceptible; resistant to dieldrin, coumaphos, DDT, chlorpyriphos, flumethrin, cypermethrin, amitraz, fluazuron).
Tick larvae (Rhipicephalus microplus) were immersed for approximately 3 minutes in test compound solution. Tick mortality was assessed approximately 24 hours after contact exposure. The vitality of used parasites was confirmed in negative control groups (i.e., an untreated control and a solvent control).

The next series deals with Rhipicephalus microplus. Kind of series: Cattle - efficacy against one-host tick. The series is classed as in vivo. The note with it: 1 mg/kg topical (Compound 4: spray solution; others: DMA 92%/DEET 8% pour-on). On the procedure: Cattle were infested (whole body) with up to 3000 Rhipicephalus microplus larvae two or three times per week before and after the treatment day (Day 0). Cattle of treatment groups were treated subcutaneously or topically (spray or pour-on) at a dose of 1 mg/kg bodyweight of a test compound. As subcutaneous formulation either 2-pyrrolidon 50%/Tween 80 50% or NMP 60%/PEG300 40% was used. As topical formulation either a spray solution (DMF/Emulsifier 2%/tap water 98%) (Compound 4) or a DMA 92%/DEET 8% pour-on solution (all other compounds) or a pour-on solution containing Imwitor 988 (20%)+Miglyol 840 (QS) (Compound 453 and Compound 466) or a pour-on solution containing Miglyol 840 (QS) (Compound 453) was used. Cattle of the negative control group received only the formulation excipients of the respective administration route.
Fully engorged female ticks dropping from cattle were collected daily after treatment and counted in treatment and control groups. Efficacy was expressed using the standard ADEQ analysis method (ADEQ calculation in accordance with WAAVP guidelines for evaluating the efficacy of acaricides against ticks on ruminants; Veterinary parasitology 136 (2006) 29-43). Compounds with efficacy ≥80 percent were found active/effective. Onset of efficacy means the first Day with efficacy ≥80 percent. Duration of efficacy means the last Day with efficacy ≥80 percent.

The next series deals with Dermacenter variabilis. Description: Cattle - efficacy against multi-host ticks (Dermacenter variabilis). In kind it is in vivo. On the procedure:
as §2, §3, §4

[9] abbreviates: 5 mg/kg subcutaneous, after 7 days.
Setting [10] is: pre-adults/adults, assessed after ~1 and 24 h.
The mark [11] stands for this setting: 5 mg/kg subcutaneous, re-infested after 7 days.
[12] abbreviates: 5 mg/kg subcutaneous, re-infested after 14 days.
Setting [13] is: 5 mg/kg subcutaneous, re-infested after 21 days.
[14] abbreviates: 5 mg/kg subcutaneous, therapeutic, Day 2.
Where [15] appears, read: 5 mg/kg topical pour-on, re-infested after 7 days.
Setting [16] is: 5 mg/kg topical pour-on, re-infested after 14 days.
[17] abbreviates: 5 mg/kg topical pour-on, re-infested after 21 days.
The mark [18] stands for this setting: 5 mg/kg topical pour-on, re-infested after 28 days.
The mark [19] stands for this setting: 5 mg/kg subcutaneous, after 10 days.
[20] abbreviates: 5 mg/kg subcutaneous, after 14 days.
The mark [21] stands for this setting: 5 mg/kg subcutaneous, after 17 days.
Where [22] appears, read: 5 mg/kg, at least until Day 10, both administration routes (oral, subcutaneous).

Like-named read-outs stand apart in the source and are kept apart here. Some results are limits rather than exact numbers.

Take `O=C(Nc1ncc(F)cn1)c1cc(NC(=O)[C@H]2[C@H](c3cc(Cl)cc(Cl)c3)C2(Cl)Cl)ccc1Cl` [Compound 460]: the inhibition at 0.01 µM in [1] (10 nM in seawater, ~24 h) came out at 100%. Also, the “activity against tick nymphs (≥80% inhibition, killed+damaged)” value is reported as “immediate activity” in series [2] (5 mg/kg oral, Day 0) and “immediate activity” in [2] (5 mg/kg subcutaneous, Day 0). Further, the “activity against bed bugs (≥80% inhibition, killed+damaged)” value in series [3] (5 mg/kg oral, Day 0) is listed as “immediate activity”; in series [3] (5 mg/kg oral, after 7 days), “activity”; in [3] (5 mg/kg subcutaneous, Day 0) it was “immediate activity”; in series [3] (setting [9]), “activity”. Moreover, in the series with Lepeophtheirus salmonis [4], the “therapeutic efficacy against juvenile sea lice (% reduction vs control)” value was 100%. In the series on Lepeophtheirus salmonis [5], the inhibition in vivo at 5 mg/kg came out at 100%. In addition, in series [6] (setting [10]), the EC50 is ≤ 10 nM.

As to `O=C(Nc1ccc(F)cc1)c1cc(NC(=O)[C@H]2[C@H](c3cc(Cl)cc(Cl)c3)C2(Cl)Cl)ccc1F` [Compound 446], the inhibition at 0.001 µM in [1] (24 h) is 100%. Besides, the “efficacy ≥80 percent against Rhipicephalus appendiculatus” value in series [7] (setting [11]) is reported as “prophylactic efficacy”; in [7] (setting [12]), “prophylactic efficacy”; in series [7] (setting [13]), “prophylactic efficacy”; in series [7] (setting [14]) it was “therapeutic efficacy”; in [7] (setting [15]), “prophylactic efficacy”; in series [7] (setting [16]), “prophylactic efficacy”. The “efficacy ≥80 percent against Rhipicephalus appendiculatus” value in series [7] (setting [17]) and in series [7] (setting [18]) was “prophylactic efficacy” in each case. Further, the “activity against tick nymphs (≥80% inhibition, killed+damaged)” value is “immediate activity” in series [2] (5 mg/kg oral, Day 0); “immediate activity” in series [2] (5 mg/kg subcutaneous, Day 0); “activity” in [2] (setting [9]); “activity” in [2] (setting [19]); “activity” in series [2] (setting [20]); “activity” in series [2] (setting [21]). Moreover, in series [2] (5 mg/kg, ticks and bed bugs), the “duration of efficacy, subcutaneous compared with oral administration” value is listed as “longer duration of efficacy”. The “activity against bed bugs (≥80% inhibition, killed+damaged)” value in series [3] (5 mg/kg oral, Day 0) is on record as “immediate activity”; in series [3] (5 mg/kg oral, after 7 days), “activity”; in [3] (5 mg/kg subcutaneous, Day 0), “immediate activity”; in series [3] (setting [9]), “activity”; in [3] (setting [19]), “activity”; in series [3] (setting [20]), “activity”. The “activity against bed bugs (≥80% inhibition, killed+damaged)” value in series [3] (setting [21]) is reported as “activity”; in [3] (5 mg/kg subcutaneous, after 21 days), “activity”; in [3] (5 mg/kg subcutaneous, after 24 days), “activity”. Moreover, the LC50 in series [8] (isolate resistant to Coumaphos, Flumethrin, Cypermethrin) is listed as 0.353 ppm; in series [8] (isolate resistant to Coumaphos, Flumethrin, Cypermethrin, Amitraz), 0.48 ppm; in [8] (isolate resistant to DDT, Dieldrin, Coumaphos) it was 0.31 ppm; in series [8] (isolate resistant to DDT, Dieldrin, Coumaphos, Chlorpyriphos), 0.463 ppm; in series [8] (isolate resistant to Dieldrin, Coumaphos, Fluazuron) it was 0.322 ppm; in [8] (isolate: Fully susceptible), 0.344 ppm. The “duration of efficacy (last Day with efficacy ≥80 percent)” value with Rhipicephalus microplus was determined as 47 days. Further, the “onset of efficacy (first Day with efficacy ≥80 percent)” value in the series on Rhipicephalus microplus stood at 3 days. The EC50 in series [6] is ≤ 10 nM. For the same compound, the “efficacy ≥80 percent against Dermacenter variabilis” value is given as “prophylactic efficacy” in the series with Dermacenter variabilis (setting [11]); “prophylactic efficacy” in the series on Dermacenter variabilis (setting [12]); “prophylactic efficacy” in the series with Dermacenter variabilis (setting [13]); “prophylactic efficacy” in the series with Dermacenter variabilis (5 mg/kg subcutaneous, re-infested after 28 days); “therapeutic efficacy” with Dermacenter variabilis (setting [14]); “prophylactic efficacy” in the series with Dermacenter variabilis (setting [15]). In addition, the “efficacy ≥80 percent against Dermacenter variabilis” value is recorded as “prophylactic efficacy” in the series with Dermacenter variabilis (setting [16]); “prophylactic efficacy” with Dermacenter variabilis (setting [17]); “prophylactic efficacy” in the series with Dermacenter variabilis (setting [18]); “prophylactic efficacy” with Dermacenter variabilis (5 mg/kg topical pour-on, re-infested after 35 days); “therapeutic efficacy” with Dermacenter variabilis (5 mg/kg topical pour-on, therapeutic, Day 2).

For the compound `O=C(Nc1ccc(F)cc1F)c1cc(NC(=O)[C@H]2[C@H](c3cc(F)c(F)c(F)c3)C2(Cl)Cl)ccc1Cl` [Compound 451], the inhibition at 0.001 µM in [1] (1 nM in seawater, ~24 h) turned out to be 100%. Moreover, the “activity against tick nymphs (≥80% inhibition, killed+damaged)” value is on record as “immediate activity” in [2] (5 mg/kg oral, Day 0); “activity” in [2] (5 mg/kg oral, after 7 days); “activity” in series [2] (5 mg/kg oral, after 10 days); “immediate activity” in series [2] (5 mg/kg subcutaneous, Day 0); “activity” in [2] (setting [9]); “activity” in series [2] (setting [19]). Also, the “effective to control ticks” value in series [2] (setting [22]) is on record as 100%. The “activity against bed bugs (≥80% inhibition, killed+damaged)” value in [3] (5 mg/kg oral, Day 0) is on record as “immediate activity”; in series [3] (5 mg/kg oral, after 7 days), “activity”; in [3] (5 mg/kg oral, after 10 days), “activity”; in series [3] (5 mg/kg subcutaneous, Day 0), “immediate activity”; in series [3] (setting [9]), “activity”; in [3] (setting [19]) it was “activity”. Also, in series [3] (setting [22]), the “effective to control bed bugs” value was 100%. Moreover, the inhibition in vivo at 5 mg/kg with Lepeophtheirus salmonis [5] was found to be 80%. The EC50 in series [6] (setting [10]) is ≤ 10 nM.

What is called inhibition is the share of the control response that was lost under treatment. In general, EC50 refers to the concentration that produces a half-maximal response. As a reminder, the LC50 is the concentration lethal to half of the exposed cells or organisms. Read a high LC50 as lower toxicity.
